Activity calls are given as the source filed them. No cut-off for these calls is given here.
What was measured:
Mus musculus [1] = experiment: Hypnotic activity in Mus musculus Kunming (mouse) assessed as increase in phenobarbital-induced sleep duration at 60 mg/kg, ip administered 30 min prior to phenobarbital-induction; assay type: functional, organism-based; parameters: dose 60 mg/kg
Mus musculus [2] = experiment: Anticonvulsant activity in ip dosed Mus musculus (mouse) assessed as protection against maximal electroshock-induced seizures administered 30 min prior to electroshock-challenge measured at 4 hr; assay type: functional
[3] = Protective index, ratio of TD50 for neurotoxicity to ED50 for anticonvulsant activity in mouse; assay type: toxicity, organism-based; conditions: in vivo, read-out: Ratio TD50/ED50
Mus musculus [4] = experiment: Neurotoxicity against Mus musculus (mouse) at 100 mg/kg, ip measured at 0.5 hr by rotarod test; assay type: toxicity, organism-based; parameters: dose 100 mg/kg, route intraperitoneal; conditions: in vivo
Mus musculus [5] = experiment: Anticonvulsant activity in Mus musculus (mouse) assessed as protection against maximal electroshock-induced seizures at 100 mg/kg, ip administered 30 min prior to electroshock-challenge measured at 4 hr; assay type: functional, organism-based; parameters: dose 100 mg/kg
Mus musculus [6] = experiment: Neurotoxicity against Mus musculus (mouse) at 100 mg/kg, ip measured at 4 hr by rotarod test; assay type: toxicity, organism-based; parameters: dose 100 mg/kg, route intraperitoneal; conditions: in vivo
Mus musculus [7] = experiment: Anticonvulsant activity in Mus musculus (mouse) assessed as protection against maximal electroshock-induced seizures at 100 mg/kg, ip administered 30 min prior to electroshock-challenge measured at 0.5 hr; assay type: functional, organism-based; parameters: dose 100 mg/kg
[8] = Neurotoxicity against ip dosed Mus musculus (mouse) by rotarod test; assay type: toxicity, organism-based; conditions: in vivo
Mus musculus [9] = experiment: Anticonvulsant activity in Mus musculus (mouse) assessed as protection against maximal electroshock-induced seizures at 300 mg/kg, ip administered 30 min prior to electroshock-challenge measured at 0.5 hr; assay type: functional, organism-based; parameters: dose 300 mg/kg
Mus musculus [10] = experiment: Anticonvulsant activity in Mus musculus (mouse) assessed as protection against maximal electroshock-induced seizures at 300 mg/kg, ip administered 30 min prior to electroshock-challenge measured at 4 hr; assay type: functional, organism-based; parameters: dose 300 mg/kg
Mus musculus [11] = experiment: Neurotoxicity against Mus musculus (mouse) at 300 mg/kg, ip measured at 0.5 hr by rotarod test; assay type: toxicity, organism-based; parameters: dose 300 mg/kg, route intraperitoneal; conditions: in vivo
Mus musculus [12] = experiment: Neurotoxicity against Mus musculus (mouse) at 300 mg/kg, ip measured at 4 hr by rotarod test; assay type: toxicity, organism-based; parameters: dose 300 mg/kg, route intraperitoneal; conditions: in vivo
Mus musculus [13] = experiment: Anticonvulsant activity in Mus musculus (mouse) assessed as protection against maximal electroshock-induced seizures at 30 mg/kg, ip administered 30 min prior to electroshock-challenge measured at 4 hr; assay type: functional, organism-based; parameters: dose 30 mg/kg
Mus musculus [14] = experiment: Anticonvulsant activity in Mus musculus (mouse) assessed as protection against maximal electroshock-induced seizures at 30 mg/kg, ip administered 30 min prior to electroshock-challenge measured at 0.5 hr; assay type: functional, organism-based; parameters: dose 30 mg/kg
Mus musculus [15] = experiment: Hypnotic activity in ip dosed Mus musculus Kunming (mouse) assessed as increase in phenobarbital-induced sleep duration administered 30 min prior to phenobarbital-induction; assay type: functional, organism-based
Mus musculus [16] = experiment: Hypnotic activity in Mus musculus Kunming (mouse) assessed as increase in phenobarbital-induced sleep duration at 10 mg/kg, ip administered 30 min prior to phenobarbital-induction; assay type: functional, organism-based; parameters: dose 10 mg/kg
Mus musculus [17] = experiment: Hypnotic activity in Mus musculus Kunming (mouse) assessed as increase in phenobarbital-induced sleep duration at 60 mg/kg, ip administered 30 min prior to phenobarbital-induction (reference value: 20.9 +/- 2.31 min); assay type: functional; conditions: route intraperitoneal
Mus musculus [18] = experiment: Hypnotic activity in Mus musculus Kunming (mouse) assessed as increase in phenobarbital-induced sleep duration at 30 mg/kg, ip administered 30 min prior to phenobarbital-induction; assay type: functional, organism-based; parameters: dose 30 mg/kg

SMILES | ED50 (Mus musculus [2]) | selectivity ratio [3] | Activity (Mus musculus [4]) | Activity (Mus musculus [5]) | Activity (Mus musculus [6]) | Activity (Mus musculus [7]) | TD50 [8] | other results
CN1CCN(C(=O)OC2c3nccnc3C(=O)N2c2ccc(Cl)cn2)CC1 (stereo not drawn) | – | – | – | – | – | – | – | Activity (Mus musculus [1]): Active
O=C1NCCOc2ccc(OCc3ccccc3F)cc21 | 45.6 mg/kg | 1.2 | Toxic | inactive | Non-toxic | Active | 52.8 mg/kg | –
CCCCCCCCCCCCOc1ccc2c(c1)C(=O)NCCO2 | – | – | – | – | – | – | – | Activity (Mus musculus [9]): Active; Activity (Mus musculus [10]): inactive; Activity (Mus musculus [11]): Toxic; Activity (Mus musculus [12]): Non-toxic
COc1ccc(COc2ccc3c(c2)C(=O)NCCO3)cc1 | – | – | Non-toxic | inactive | Non-toxic | inactive | – | –
CCC1(c2ccccc2)C(=O)NC(=O)NC1=O [PHENOBARBITAL] | 21.8 mg/kg | – | – | – | – | – | – | –
O=C1NCCOc2ccc(OCc3ccc(Cl)cc3)cc21 | – | – | Toxic | inactive | Non-toxic | inactive | – | –
CCCCCCCOc1ccc2c(c1)C(=O)NCCO2 | 19 mg/kg | 2.5 | Toxic | – | Non-toxic | – | 47.3 mg/kg | Activity (Mus musculus [13]): inactive; Activity (Mus musculus [14]): Active; Activity (Mus musculus [15]): Dose-dependent effect; Activity (Mus musculus [16]): inactive; Time (Mus musculus [17]): 45.7 min; Activity (Mus musculus [18]): Active
O=C1CCc2cc(OCc3ccccc3)ccc2N1 | – | – | – | – | – | – | > 300 mg/kg | –
CCCOc1ccc2c(c1)C(=O)NCCO2 | 78.3 mg/kg | 2.2 | Toxic | inactive | Non-toxic | Active | 170 mg/kg | –
CCCCCCOc1ccc2c(c1)C(=O)NCCO2 | 47.3 mg/kg | 2.2 | Toxic | Active | Non-toxic | Active | 106 mg/kg | –
CCCCOc1ccc2c(c1)C(=O)NCCO2 | – | – | Toxic | Active | Non-toxic | Active | – | –
CCOc1ccc2c(c1)C(=O)NCCO2 | – | – | Non-toxic | inactive | Non-toxic | inactive | – | –
O=C1NCCOc2ccc(OCc3ccc(Br)cc3)cc21 | – | – | – | – | – | – | – | Activity (Mus musculus [9]): Active; Activity (Mus musculus [10]): inactive; Activity (Mus musculus [11]): Toxic; Activity (Mus musculus [12]): Non-toxic
O=C1NCCOc2ccc(OCc3ccccc3Br)cc21 | – | – | Toxic | inactive | Non-toxic | inactive | – | –
O=C1NCCOc2ccc(OCc3ccccc3)cc21 | 73.1 mg/kg | 1 | Toxic | inactive | Non-toxic | Active | 76.2 mg/kg | –
O=C1NCCOc2ccc(OCc3ccc(F)cc3)cc21 | – | – | – | – | – | – | – | Activity (Mus musculus [9]): Active; Activity (Mus musculus [10]): Active; Activity (Mus musculus [11]): Toxic; Activity (Mus musculus [12]): Non-toxic
O=C1NCCOc2ccc(OCc3cccc(F)c3)cc21 | 73.1 mg/kg | 1 | Toxic | inactive | Non-toxic | Active | 73.1 mg/kg | –
CCCCCOc1ccc2c(c1)C(=O)NCCO2 | 56.8 mg/kg | 1.9 | Toxic | inactive | Non-toxic | Active | 106 mg/kg | –
Cc1ccc(COc2ccc3c(c2)C(=O)NCCO3)cc1 | – | – | Toxic | inactive | Non-toxic | inactive | – | –
O=C1NCCOc2ccc(OCc3cccc(Cl)c3)cc21 | – | – | Toxic | inactive | Non-toxic | Active | – | –
NC(=O)N1c2ccccc2C=Cc2ccccc21 [CARBAMAZEPINE] | – | 6.4 | – | – | – | – | – | –
COc1ccc(COc2ccc3c(c2)C(=O)NCCO3)cc1OC | – | – | Toxic | inactive | Non-toxic | inactive | – | –
O=C1NCCOc2ccc(OCc3c(Cl)cccc3Cl)cc21 | – | – | Toxic | inactive | Non-toxic | inactive | – | –
CCCCCCCCOc1ccc2c(c1)C(=O)NCCO2 | – | – | Toxic | inactive | Non-toxic | Active | – | –
O=C1NCCOc2ccc(OCc3ccccc3Cl)cc21 | – | – | – | – | – | – | – | Activity (Mus musculus [9]): Active; Activity (Mus musculus [10]): inactive; Activity (Mus musculus [11]): Toxic; Activity (Mus musculus [12]): Non-toxic

From ChEMBL document CHEMBL3046775, “Synthesis and evaluation of 7-substituted-3,4-dihydrobenzo[f][1,4]oxazepin-5(2H)-ones as anticonvulsant and hypnotic agents” (Med Chem Res, 2011)
